Measured values reported in patent publication US8580732B2, “Peptide therapy for hyperglycemia” (Duke University, priority 2009, dated 2013).

Legend:
Format in all cases: cell-based
primary rat islets [1] = assay: Glucose-stimulated insulin secretion (GSIS), static incubation, primary rat islets; details: 16.7 mM Glc
Protocol: (§1) 832/3 and 832/13 cells derived from the parental INS-1 cell line were cultured as previously described (REF-Hohmeier/Wolheim). Pancreatic islets were isolated from male Sprague-Dawley rats according to standard procedures (See, e.g., Ronnebaum et al., (2006) J. Biol. Chem. 281: 30593-30602). For cell culture experiments, TLQP-21 was purchased from Phoenix Pharmaceuticals. For animal studies, TLQP-21 was synthesized by GenScript Corporation. AQEE-30 was a kind gift of Dr. Yun-Ping (Merck Research Laboratories).
Human VGF cDNA was purchased from Open Biosystems and subcloned into pAC.CMV using PCR engineered restriction sites. Recombinant adenovirus was generated as previously described (REF). Adenoviruses expressing Nkx6.1, Pdx-1, GFP, beta-galactosidase have been described elsewhere (REF). […]
Islets: 3 groups of 20 islets were washed with phosphate-buffered saline (PBS) and incubated in secretion assay buffer (SAB; 114 mM NaCl, 4.7 mM KCl, 1.2 mM […], 1.16 mM MgSO4, 25 mM HEPES pH 7.2, 2.5 mM CaCl2, 0.2% bovine serum albumin (Gibco), 25.5 mM NaHCO3) containing 2.5 mM Glc for 1 hr at 37° C. […] Islets were lysed in RIPA buffer containing 5 mM EDTA and total protein determined by BCA (Pierce). Insulin was measured from SAB using the Coat-a-Count kit (Siemens). Insulin content was determined from a 1:100 dilution of total protein.

primary rat islets [2] = assay: cAMP level determination in primary rat islets; details: 16.7 mM Glc, 30 min, TLQP-21 50 nM, exendin-4 20 nM, relative to untreated control
Protocol: Primary rat islets and 832/3 cells were prepared as stated for insulin secretion measurements except the incubation at stimulatory glucose was for 30 min in the presence of 0.1 mM isobuytlmethylxanthine (IBMX). Rat islets were rapidly transferred to 0.2 mL of ice-cold 80% ethanol and stored at −80° C. until assayed. Samples were evaporated to dryness and assayed using the cAMP EIA kit from Biomedical Technologies, Inc. using acetylation protocol. For 832/3 cells, the secretion buffer was removed and rapidly replaced with 0.5 mL of 80% ethanol. Cells were stored at −80° C. until assayed. 0.2 mL of sample was evaporated to dryness and assayed for cAMP using the non-acetylation protocol.

isolated rat islets = assay: Etoposide-induced apoptosis, Annexin V staining by flow cytometry, isolated rat islets; details: 72 hr
Protocol: Pools of 50 islets were treated with DMSO, etoposide (0.2 mM) or camptothecin (10 μM) for 72 hrs as indicated. Islets were co-incubated with peptide (50 nM TLQP-21, 50 nM exendin-4), H89 (concentration), and/or LY294002 (concentration) where indicated. Islets were dispersed using 0.05% trypsin/EDTA (Sigma) diluted 1:1 with cell dissociation buffer (Sigma) for 5-10 min at 37 C following gentle pipetting. Islets were recovered by centrifugation and stained with FITC-conjugated Annexin V and propidium iodide (Roche) according to the manufacturer's specifications. Data were collected using a FACScan analyzer and analyzed using WinMDI 2.9 software.

832/3 cells = assay: Glucose-stimulated insulin secretion (GSIS), static incubation, 832/3 cells; details: 12 mM Glc, concentrations that augment insulin release in rat islets
Protocol: as §1
832/3 cells were plated in triplicate per condition in 12-well dishes and assayed at confluence. Cells were washed in SAB buffer and pre-incubated for 1.5 hr in SAB containing 2.5 mM Glc. Insulin was collected by static incubation in SAB containing 2.5 mM Glc for 2 hrs at 37° C. (basal) followed by incubation in SAB containing 12 mM Glc for 2 hrs (stimulatory). Secretagogues (20 nM exendin-4, TLQP-21, AQEE-30) were added where indicated. Cells were washed in PBS, collected by centrifugation, and lysed in 50 uL RIPA containing 5 mM EDTA. Total protein was determined by BCA (Pierce). Insulin was measured from SAB using the Coat-a-Count kit (Siemens). Insulin content was determined from a 1:500 dilution of total protein.

In the case of exendin-4, the “enhancement of GSIS” value (primary rat islets [1]; 20 nM) is reported as 1.8 fold, the “increase in cAMP levels” value (primary rat islets [2]) is reported as roughly 3 fold and the “protection against etoposide-mediated apoptosis” value (isolated rat islets; co-culture with etoposide 0.2 mM) is reported as “comparable level of protection”.

“AQEE-30: second C-terminal VGF peptide; SEQ ID NO:14 is rat AQEE-30 polypeptide (AQARRAQEEADAEERRLQEQEELENYIEHVLLHRP; listed as Rattus norvegicus)” was tested, and the “ability to potentiate GSIS” value (832/3 cells) was “unable to augment GSIS” and the “ability to potentiate GSIS” value (primary rat islets [1]) was “unable to augment GSIS”.

`COc1cc([C@@H]2c3cc4c(cc3[C@@H](O[C@@H]3O[C@@H]5CO[C@@H](C)O[C@H]5[C@H](O)[C@H]3O)[C@H]3COC(=O)[C@H]23)OCO4)cc(OC)c1O` [etoposide] was tested, and the “increase in Annexin V positive cells over untreated (DMSO) control” value (isolated rat islets; etoposide 0.2 mM alone) was 18% and the “islet cells staining positive for Annexin V” value (isolated rat islets; etoposide 0.2 mM alone) was 35%.
